Where a SMILES comes first, the peptide text is derived from it. [ ]: non-standard residue; d: D form. The star is where a group is joined. NHCH2CH2OH = OCCN*; For = O=C*
What was measured:
[1] = H+/Na+ transport assay of bead-derived peptides (one-point); type: biochemical; set-up: key: relative activity; mean of two control wells = 1.00; details: bead-derived peptide solution, EYPC/EYPG LUVs;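 also: relative to parent gramicidin A activity set to 1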
Method in brief: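 Values are normalized fluorescence, with Triton X-100 defining 100% and untreated LUVs 0%, and the two control wells averaging 1.00. Vesicles carried 1.0 mM pyranine and included egg yolk phosphatidylglycerol. Peptides were incubated with them 30 min at room temperature.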

[2] = system: P388 mouse leukemia cells; details: 92 h
Method in brief: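 First, library peptide stocks are diluted 250-fold in RPMI1640 with 10% heat-inactivated FBS. Next, they are mixed with P388 cells to give 1 × 10^4 cells/mL and incubated 92 h at 37 °C, 5% CO2. Finally, viability (%) is scored by WST-1 absorbance at 415 nm.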

[3] = system: Streptococcus pyogenes SSI-9; experiment: Antibacterial activity assay of bead-derived peptides (three concentrations); type: cell-based; set-up: key: +++: inhibition by the 640-fold diluted peptide solution; ++: inhibition by the 160-fold diluted solution; +: inhibition by the 40-fold diluted solution; -: no inhibition; details: S. pyogenes, bead-derived peptide solution, three concentrations
Method in brief: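 Bead-derived library peptide stocks in DMSO were tested undiluted and after 4- and 16-fold DMSO dilution against S. pyogenes SSI-9 (2 × 10^5 CFU/well) in cation-adjusted Mueller Hinton Broth with 5% laked horse blood. After 18 h at 37 °C, wells were scored for precipitation of grown cells.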

Row | SMILES | H+/Na+ transport activity normalized against the value of 1 (1.00) [1] | cell viability/% [2] | antibacterial activity [3]
1 | CC(C)C[C@@H](NC(=O)[C@H](C)NC(=O)CNC(=O)[C@@H](NC=O)C(C)C)C(=O)N[C@@H](C)C(=O)N[C@@H](C(=O)N[C@H](C(=O)N[C@@H](C(=O)N[C@@H](Cc1c[nH]c2ccccc12)C(=O)N[C@H](CC(C)C)C(=O)N[C@@H](Cc1c[nH]c2ccccc12)C(=O)N[C@H](CC(C)C)C(=O)N[C@@H](Cc1c[nH]c2ccccc12)C(=O)N[C@@H](C(=O)N[C@@H](Cc1c[nH]c2ccccc12)C(=O)NCCO)C(C)C)[C@H](C)O)C(C)C)C(C)C [compound 13268] (For-VGA[dL]A[dV]V[dT]W[dL]W[dL]W[dV]W-NHCH2CH2OH) | 1.03 | 100.0% | +
2 | CC(C)C[C@@H](NC(=O)[C@H](C)NC(=O)[C@H](NC(=O)[C@H](C)NC(=O)CNC(=O)[C@@H](NC=O)C(C)C)C(C)C)C(=O)N[C@H](C(=O)N[C@H](CC(C)C)C(=O)N[C@@H](Cc1c[nH]c2ccccc12)C(=O)N[C@@H](C(=O)N[C@@H](Cc1c[nH]c2ccccc12)C(=O)N[C@H](CC(C)C)C(=O)N[C@@H](Cc1c[nH]c2ccccc12)C(=O)N[C@H](CC(C)C)C(=O)N[C@@H](Cc1c[nH]c2ccccc12)C(=O)NCCO)C(C)C)C(C)C [compound 5699] (For-VGA[dV]A[dL]V[dL]W[dV]W[dL]W[dL]W-NHCH2CH2OH) | 1.05 | 36.7% | +
3 | CC(C)C[C@@H](NC(=O)[C@H](C)NC(=O)CNC(=O)[C@@H](NC=O)C(C)C)C(=O)N[C@@H](C)C(=O)N[C@@H](C(=O)N[C@H](C(=O)N[C@@H](C(=O)N[C@@H](Cc1c[nH]c2ccccc12)C(=O)N[C@@H](C(=O)N[C@@H](Cc1c[nH]c2ccccc12)C(=O)N[C@H](CC(C)C)C(=O)N[C@@H](Cc1c[nH]c2ccccc12)C(=O)N[C@@H](C(=O)N[C@@H](Cc1c[nH]c2ccccc12)C(=O)NCCO)C(C)C)C(C)C)C(C)C)C(C)C)C(C)C [compound 9036] (For-VGA[dL]A[dV]V[dV]W[dV]W[dL]W[dV]W-NHCH2CH2OH) | 1.18 | 94.7% | +
4 | CC(C)C[C@@H](NC(=O)[C@H](Cc1c[nH]c2ccccc12)NC(=O)[C@H](NC(=O)[C@H](Cc1c[nH]c2ccccc12)NC(=O)[C@H](NC(=O)[C@@H](NC(=O)[C@H](NC(=O)[C@H](C)NC(=O)[C@H](NC(=O)[C@H](C)NC(=O)CNC(=O)[C@@H](NC=O)C(C)C)C(C)C)C(C)C)C(C)C)C(C)C)C(C)C)C(=O)N[C@@H](Cc1c[nH]c2ccccc12)C(=O)N[C@@H](C(=O)N[C@@H](Cc1c[nH]c2ccccc12)C(=O)NCCO)C(C)C [compound 6165] (For-VGA[dV]A[dV]V[dV]W[dV]W[dL]W[dV]W-NHCH2CH2OH) | 1.07 | 67.9% | -
5 | CC(C)C[C@@H](NC(=O)[C@H](C)NC(=O)[C@H](NC(=O)[C@H](C)NC(=O)CNC(=O)[C@@H](NC=O)C(C)C)C(C)C)C(=O)N[C@H](C(=O)N[C@@H](C(=O)N[C@@H](Cc1c[nH]c2ccccc12)C(=O)N[C@@H](C(=O)N[C@@H](Cc1c[nH]c2ccccc12)C(=O)N[C@@H](C(=O)N[C@@H](Cc1c[nH]c2ccccc12)C(=O)N[C@H](CC(C)C)C(=O)N[C@@H](Cc1c[nH]c2ccccc12)C(=O)NCCO)C(C)C)C(C)C)[C@H](C)O)C(C)C [compound 11143] (For-VGA[dV]A[dL]V[dT]W[dV]W[dV]W[dL]W-NHCH2CH2OH) | 1.19 | 63.4% | -
6 | CC(C)C[C@@H](NC(=O)[C@H](Cc1c[nH]c2ccccc12)NC(=O)[C@H](NC(=O)[C@@H](NC(=O)[C@H](NC(=O)[C@H](C)NC(=O)[C@H](NC(=O)[C@H](C)NC(=O)CNC(=O)[C@@H](NC=O)C(C)C)C(C)C)C(C)C)C(C)C)C(C)C)C(=O)N[C@@H](Cc1c[nH]c2ccccc12)C(=O)N[C@@H](C(=O)N[C@@H](Cc1c[nH]c2ccccc12)C(=O)N[C@@H](C(=O)N[C@@H](Cc1c[nH]c2ccccc12)C(=O)NCCO)C(C)C)C(C)C [compound 4830] (For-VGA[dV]A[dV]V[dV]W[dL]W[dV]W[dV]W-NHCH2CH2OH) | 1.18 | 89.5% | ++
7 | CNC(=O)C[C@@H](NC(=O)[C@@H](NC(=O)[C@H](NC(=O)[C@H](C)NC(=O)[C@@H](CC(C)C)NC(=O)[C@H](C)NC(=O)CNC(=O)[C@@H](NC=O)C(C)C)C(C)C)C(C)C)C(=O)N[C@@H](Cc1c[nH]c2ccccc12)C(=O)N[C@@H](C(=O)N[C@@H](Cc1c[nH]c2ccccc12)C(=O)N[C@H](CC(C)C)C(=O)N[C@@H](Cc1c[nH]c2ccccc12)C(=O)N[C@@H](C(=O)N[C@@H](Cc1c[nH]c2ccccc12)C(=O)NCCO)C(C)C)C(C)C [compound 9521] (For-VGA[dL]A[dV]V[dD](NHMe)W[dV]W[dL]W[dV]W-NHCH2CH2OH) | 1.14 | 100.0% | -
8 | CC(C)C[C@@H](NC(=O)[C@H](C)NC(=O)[C@H](NC(=O)[C@H](C)NC(=O)CNC(=O)[C@@H](NC=O)C(C)C)C(C)C)C(=O)N[C@H](C(=O)N[C@H](CC(C)C)C(=O)N[C@@H](Cc1c[nH]c2ccccc12)C(=O)N[C@@H](C(=O)N[C@@H](Cc1c[nH]c2ccccc12)C(=O)N[C@@H](C(=O)N[C@@H](Cc1c[nH]c2ccccc12)C(=O)N[C@H](CC(C)C)C(=O)N[C@@H](Cc1c[nH]c2ccccc12)C(=O)NCCO)C(C)C)[C@H](C)O)C(C)C [compound 6572] (For-VGA[dV]A[dL]V[dL]W[dT]W[dV]W[dL]W-NHCH2CH2OH) | 1.09 | 100.0% | -
9 | CC(C)C[C@@H](NC(=O)[C@H](C)NC(=O)[C@H](NC(=O)[C@H](C)NC(=O)CNC(=O)[C@@H](NC=O)C(C)C)C(C)C)C(=O)N[C@H](C(=O)N[C@@H](C(=O)N[C@@H](Cc1c[nH]c2ccccc12)C(=O)N[C@@H](C(=O)N[C@@H](Cc1c[nH]c2ccccc12)C(=O)N[C@H](CC(C)C)C(=O)N[C@@H](Cc1c[nH]c2ccccc12)C(=O)N[C@@H](C(=O)N[C@@H](Cc1c[nH]c2ccccc12)C(=O)NCCO)[C@H](C)O)C(C)C)C(C)C)C(C)C [compound 12285] (For-VGA[dV]A[dL]V[dV]W[dV]W[dL]W[dT]W-NHCH2CH2OH) | 1.01 | 100.0% | -
10 | CC(C)C[C@@H](NC(=O)[C@H](Cc1c[nH]c2ccccc12)NC(=O)[C@@H](CC(C)C)NC(=O)[C@H](Cc1c[nH]c2ccccc12)NC(=O)[C@@H](CC(C)C)NC(=O)[C@H](Cc1c[nH]c2ccccc12)NC(=O)[C@@H](CC(C)C)NC(=O)[C@@H](NC(=O)[C@H](NC(=O)[C@H](C)NC(=O)[C@H](NC(=O)[C@H](C)NC(=O)CNC(=O)[C@@H](NC=O)C(C)C)C(C)C)C(C)C)C(C)C)C(=O)N[C@@H](Cc1c[nH]c2ccccc12)C(=O)NCCO [compound 3308] (For-VGA[dV]A[dV]V[dL]W[dL]W[dL]W[dL]W-NHCH2CH2OH) | 1.15 | 0.1% | ++
11 | CC(C)C[C@@H](NC(=O)[C@H](Cc1c[nH]c2ccccc12)NC(=O)[C@@H](CC(C)C)NC(=O)[C@H](Cc1c[nH]c2ccccc12)NC(=O)[C@@H](CC(C)C)NC(=O)[C@H](Cc1c[nH]c2ccccc12)NC(=O)[C@H](NC(=O)[C@@H](NC(=O)[C@H](NC(=O)[C@H](C)NC(=O)[C@H](NC(=O)[C@H](C)NC(=O)CNC(=O)[C@@H](NC=O)C(C)C)C(C)C)C(C)C)C(C)C)C(C)C)C(=O)N[C@@H](Cc1c[nH]c2ccccc12)C(=O)NCCO [compound 3311] (For-VGA[dV]A[dV]V[dV]W[dL]W[dL]W[dL]W-NHCH2CH2OH) | 1.14 | 3.3% | ++
12 | CNC(=O)C[C@@H](NC(=O)[C@H](Cc1c[nH]c2ccccc12)NC(=O)[C@@H](CC(C)C)NC(=O)[C@H](Cc1c[nH]c2ccccc12)NC(=O)[C@H](NC(=O)[C@H](Cc1c[nH]c2ccccc12)NC(=O)[C@H](NC(=O)[C@@H](NC(=O)[C@@H](CC(C)C)NC(=O)[C@H](C)NC(=O)[C@H](NC(=O)[C@H](C)NC(=O)CNC(=O)[C@@H](NC=O)C(C)C)C(C)C)C(C)C)C(C)C)C(C)C)C(=O)N[C@@H](Cc1c[nH]c2ccccc12)C(=O)NCCO [compound 6329] (For-VGA[dV]A[dL]V[dV]W[dV]W[dL]W[dD](NHMe)W-NHCH2CH2OH) | 1.03 | 43.5% | -
13 | CC(C)C[C@@H](NC(=O)[C@H](Cc1c[nH]c2ccccc12)NC(=O)[C@H](NC(=O)[C@H](Cc1c[nH]c2ccccc12)NC(=O)[C@@H](CC(C)C)NC(=O)[C@H](Cc1c[nH]c2ccccc12)NC(=O)[C@H](NC(=O)[C@@H](NC(=O)[C@H](NC(=O)[C@H](C)NC(=O)[C@H](NC(=O)[C@H](C)NC(=O)CNC(=O)[C@@H](NC=O)C(C)C)C(C)C)C(C)C)C(C)C)C(C)C)C(C)C)C(=O)N[C@@H](Cc1c[nH]c2ccccc12)C(=O)NCCO [compound 2994] (For-VGA[dV]A[dV]V[dV]W[dL]W[dV]W[dL]W-NHCH2CH2OH) | 1.14 | 6.3% | ++

From article PMC7531004, “Discovery of gramicidin A analogues with altered activities by multidimensional screening of a one-bead-one-compound library” (Nature Communications, 2020)
